# Where two headings read alike, the source gives them in different places.
# Columns and labels:
# [1] = molecular target: T1, Rubisco (ribulose-1,5-bisphosphate carboxylase/oxygenase), carbamylated rice enzyme (Oryza sativa, UniProt P0C512); test: biochemical; design: 14CO2 incorporation by purified activated rice Rubisco; apparent Ki from Michaelis-Menten kinetics; conditions: noncompetitive-like, apparent Ki
# T1 construct: gene rbcL; Rubisco purified from rice leaves (cv. Nipponbare), L8S8 complex, carbamylated; with Rubisco small subunit (L8S8 holoenzyme)
# T1 sequence (Q0INY7 47-175, other chains not shown): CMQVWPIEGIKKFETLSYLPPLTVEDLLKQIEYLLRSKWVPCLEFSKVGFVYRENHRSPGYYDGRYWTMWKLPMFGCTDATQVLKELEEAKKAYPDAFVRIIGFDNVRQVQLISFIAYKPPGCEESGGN
# Procedure: Water was used as control and for each metabolite an intermediate and the highest concentration were used, with the exceptions of CABP for which the maximum concentration was 0.2 µM (as at the maximum concentration 0.3 µM the activity was very low) and for 3-PGA we used 8 and 12 mM (as these were the concentrations that affected Rubisco activity under saturating substrate concentrations). Basic assay buffer (100 mM Bicine-NaOH, pH 8.2, 20 mM MgCl2 and 2 mM KH2PO4) was sparged with compressed air which passed through soda lime and 1 M NaOH to remove CO2. […] The incubation with metabolite and activity were performed as described above. Vmax and Km were calculated using the Michaelis-Menten equation [58]. […] The incubation and activity were performed as described above and the activity was expressed as % of control samples (where control is 100%). Given the constraints associated with two substrate Rubisco activity and its interaction with tight binding inhibitions, we used a simplistic approximation to estimate apparent inhibitor constants (Kiapp) based on the Michaelis-Menten equations [59] (eqn 1) and on the ‘quotient velocity plot’ [60] (eqn 2). Where [I] is the inhibitor concentration and α was estimated according to the inhibition type: […]
# [2] = molecular target: T1, Rubisco (ribulose-1,5-bisphosphate carboxylase/oxygenase), carbamylated rice enzyme; test: […]CO2 incorporation assay with purified Rubisco, dose-response and Vmax/Km kinetics; format: biochemical; conditions: read-out: % inhibition at 0.3 μM
# [3] = test system: O=C(COP(=O)(O)O)[C@H](O)[C@H](O)COP(=O)(O)O; test: purified protein; conditions: Mg2+; carbamylated Lys201 (activator CO2) catalytic site
# [4] = molecular target: T1, Rubisco (ribulose-1,5-bisphosphate carboxylase/oxygenase), carbamylated rice enzyme; test: […]CO2 incorporation assay with purified Rubisco, dose-response and Vmax/Km kinetics (competitive inhibition); format: biochemical; conditions: read-out: % inhibition at 12 mM
# [5] = molecular target: T1, Rubisco (ribulose-1,5-bisphosphate carboxylase/oxygenase), carbamylated rice enzyme; test: […]CO2 incorporation assay with purified Rubisco, dose-response and Vmax/Km kinetics; format: biochemical
# [6] = Eq. 1 (Michaelis-Menten), read-out: Ki^app (Eq. 1)
# [7] = Eq. 2 (quotient velocity plot), read-out: Ki^app (Eq. 2)
"Ki [1, 6] [nM]","Ki [1, 7] [nM]",Molecule,other results
120 ± 20,100 ± 20,O=C(O)[C@@](O)(COP(=O)(O)O)[C@H](O)[C@H](O)COP(=O)(O)O [CABP],inhibition at 0.3 µM [2]: ~86%
,,"Rubisco (ribulose-1,5-bisphosphate carboxylase/oxygenase), carbamylated rice enzyme (Oryza sativa Japonica Group)",Km [3]: 78.08 ± 3.29 µM
,,O=C(O)[C@H](O)COP(=O)(O)O [3-PGA],inhibition at 12000 µM [4]: ~30%
440 ± 80,440 ± 10,O=C(O)[C@@](O)(COP(=O)(O)O)[C@H](O)[C@H](O)CO [CA1P],"14CO2 incorporation assay with purified Rubisco, dose-response and Vmax/Km kinet [5]: activity decreases by half at 0.3"

# Source: publication PMC11346435, “Regulation of Rubisco activity by interaction with chloroplast metabolites” (Biochemical Journal, 2024)
